Literature values as cited in patent US20170071839A1, “Personal care and medicinal products incorporating organosulfur groups” (priority 2015, published 2017).
Where two headings read alike, the source gives them in different places. Each block holds one compound with its values, some of them ahead of it.

Tests used:
[1] = after garlic consumption
[2] = after fresh garlic (e.g. 25 g) or pure allicin (60 mg)
[3] = shelf stability
[4] = not given; remark: listed apart in the source
NFkB = details: macrophages
[5] = system: total glutathione level of cells
[6] = system: acetaminophen (Tylenol) poisoning
[7] = system: Salmonella typhimurium and E. coli
[8] = biological target: NFkB signal transduction proteins p50 and P65 (Homo sapiens, UniProt P19838+Q04206)

Compound: C=CCSC [AMS, allyl methyl sulfide]
time of disappearance from breath [1]: 20 h

Reaction in Blood Product (moles): AllylSH (1.6)
time to be metabolized to allyl mercaptan (red blood cells exposed to allicin): less than one
detection in blood, urine, or stool [2]: undetectable
half-life [3]: weeks to months
Compound: C=CCS[S+]([O-])CC=C (stereo not drawn) [Allicin, DiAllylThioSulfinate]

solubility [4]: water soluble
time of disappearance from breath [1]: ≤ 1 h
Compound: C=CCS [AllylSH, AllylThiol]

solubility [4]: low solubility
Compound: N[C@@H](CSSC[C@H](N)C(=O)O)C(=O)O [Cysteine disulfide, Cystine]

Compound: C=CCSSCC=C [DADS, Diallyl Disulfide]
Reaction in Blood Product (moles): AllylSH (0.8)

Compound: C=CCSC[C@H](NC(C)=O)C(=O)O [N-acetyl-S-allylcysteine]
effect on Cu2+ induced LDL oxidation (LDL): significantly reduce

Compound: N[C@@H](CSN=O)C(=O)O [S-Nitrosocysteine]
concentration that nearly completely inhibits the activation of NFkB (NFkB): 1 micro-mole

Compound: C=CCSC[C@H](N)C(=O)O [S-allylcysteine]
effect on Cu2+ induced LDL oxidation (LDL): significantly reduce

Compound: C=CCSSC[C@H](N)C(=O)O [SAMC, S-AllylMercaptoCysteine]
total glutathione level of cells [5]: significantly increase the total glutathione level
Reaction in Blood Product (moles): AllylSH (0.8)
protection from acetaminophen poisoning ([6]; post treatment, single dose 200 mg/kg): protective
protection from acetaminophen poisoning ([6]; pretreatment): protect mice
effect on Cu2+ induced LDL oxidation (LDL): significantly reduce

Compound: CCCSSCCC [di-n-proply disulfide]
antibiotic effectiveness [7]: antibiotic effectiveness

Compound: CCCS[S+]([O-])CCC (stereo not drawn) [dipropylthiosulfinate]
nematicidal activity (nematicidal activity): most effective compound

Compound: C=CCS[S+](C)[O-] (stereo not drawn) [methyl allyl thiosulfinate]
activity against E-coli O157:H7 (E-coli O157:H7): effective

Compound: CS[S+](C)[O-] (stereo not drawn) [methyl methane thiosulfinate]
activity against E-coli O157:H7 (E-coli O157:H7): effective

Compound: C=CCSSCCC [n-propyl allyl disulfide]
antibiotic effectiveness [7]: antibiotic effectiveness

Compound: [N]=O [nitric oxide]
concentration that inhibited the DNA binding activity [8]: 20-100 nano mole

Compound: S-allylcysteine sulfoxide [alliin]
effect on Cu2+ induced LDL oxidation (LDL): significantly reduce
